“Also recorded” adds a separate entry of the source.
Tests used:
CD44-deficient mice = test: HA challenge in CD44-deficient mice, AHR; assay type: in vivo; conditions: sHA instillation
Procedure: (§1) HA challenge: Sterile, endotoxin-free (0.00008 EU/ml) high molecular weight hyaluronan (HMW-HA) (Healon, AMO, Santa Ana, Calif.) was reconstituted at 0.5 mg/ml in 0.02 M acetate/0.15 M sodium chloride, pH 6.0. For the production of low molecular weight (also known as short-fragment) hyaluronan (sHA), healon was sonicated on ice. Sizes were confirmed by electrophoresis according to known methods (Lee and Cowman Anal Biochem 219(2):278-287, 1994). In some experiments, 50 μl of HMW-HA, sHA, or vehicle were instilled oropharyngeally into isoflurane-anesthetized mice, and AHR was measured invasively 2-4 hours later. In other experiments, 50 μl of HMW-HA or vehicle was instilled 1 hour before and 23 hours after acute ozone exposure, and AHR was measured invasively 24 hours after ozone exposure.
(§2) Airway Physiology: Twenty four hours after the beginning of exposure, tracheas of anesthetized mice (pentobarbital sodium, 60 mg/kg i.p.) were surgically dissected and intubated, mice were paralyzed (pancuronium bromide, […] i.v.) and ventilated with a computer-controlled small animal ventilator (FlexiVent™, SCIREQ, Montreal, Canada) at a tidal volume of 7.5 ml/kg and a positive end-expiratory pressure of 3 cm H2O. Forced oscillation was used for measurements of respiratory mechanics. […]

naive C57BL/6J mice [1] = test: HA challenge: oropharyngeal instillation of hyaluronan into naive mice, AHR measured invasively; assay type: in vivo; conditions: 50 μl of 0.5 mg/ml oropharyngeal, AHR 2-4 hours later, compared to vehicle
Procedure: as §1, §2

naive C57BL/6J mice [2] = test: Lung lavage cells after sHA instillation; assay type: in vivo; conditions: compared to vehicle
Procedure: as §1
Whole lung lavage: Whole lung lavage was performed according to previously described methods (Hollingsworth et al., Am J Respir Crit Care Med 170(2):126-132, 2004). Supernatants were stored at −70° C.

[3] = in vivo; cited from earlier work
C57BL/6J mice = test: Ozone-induced AHR, total lung resistance to methacholine (FlexiVent); assay type: in vivo; conditions: 50 μl instilled 1 hour before and 23 hours after acute ozone exposure; AHR 24 hours after ozone; vs vehicle
From the text: Exposure Protocol: C57BL/6J, CD44−/−, IaI−/− or HAS2 transgenic mice (mice that overexpress HAS2) were exposed to either Hepa-filtered air (FA) or ozone. Animals were housed in cages with low-endotoxin bedding, and given water and chow ad libitum. Ozone exposures were two parts per million (ppm) for three hours. The selection of ozone concentration levels in the mouse was based on similar biological responses observed in human exposure studies and published deposition fraction data for 03 in rodent models (Wiester et al., Toxicol Appl Pharmacol 96(1):140-146, 1988). Exposures were performed in 55-liter Hinner chambers with individual animal slots. […] Chamber ozone concentration was monitored continuously with a UV light photometer (1003AH, Dasibi, Glendale, Calif.). […]
as §1, with “For the production of low molecular weight (also known as short-fragment) hyaluronan (sHA), healon was sonicated on ice. Sizes were confirmed by electrophoresis according to known methods (Lee and Cowman Anal Biochem 219(2):278-287, 1994).” left out, “exposure. […]” for “exposure.”

Substance	sHA-induced AHR in CD44-deficient mice compared to C57BL/6 (CD44-deficient mice)	induction of AHR in naive mice (naive C57BL/6J mice [1])	total cells or cell composition in lung lavage fluid after instillation (naive C57BL/6J mice [2])	bronchoconstrictive response in exercise-induced asthma [3]	ozone-induced AHR with hyaluronan instilled before and after ozone (C57BL/6J mice)
short-fragment hyaluronan [sHA]	resistant to sHA-induced AHR	induced AHR	significant changes in total cells or cell composition in the lung lavage fluid were not observed; also recorded: a significant change was not observed in any cell type	–	–
high molecular weight hyaluronan [HMW-HA]	–	–	–	attenuate the bronchoconstrictive response	significantly ameliorates AHR; also recorded: significant attenuation of AHR
